The values below come from ChEMBL document CHEMBL1152465, “Comparative evaluation of the inhibitory activities of a series of pyrimidinedione congeners that inhibit human immunodeficiency virus types 1 and 2” (Antimicrob Agents Chemother, 2008).

Active and inactive are the calls of the source. Bounds are passed on as bounds.

In series [1] the test system is Human immunodeficiency virus 2. The series is described as follows: Antiviral activity against HIV2 ROD infected in human CEM-SS cells assessed as inhibition of virus-induced cytopathic effect by XTT assay. As to conditions: Human immunodeficiency virus 2, ISOLATE ROD, CEM-SS; read-out: EC50. It is filed as functional, organism-based, ISOLATE ROD.
A short description of series [2]: Therapeutic index, ratio of TC50 for human CEM-SS cells to EC50 for HIV1 RF infected in human CEM-SS cells. It is filed as cell-based. As to conditions: read-out: TI.
A short description of series [3]: Therapeutic index, ratio of TC50 for human CEM-SS cells to EC50 for HIV2 ROD infected in human CEM-SS cells. It is filed as cell-based. To be noted: CEM-SS cells, read-out: TI.
Series [4] deals with Human immunodeficiency virus type 1 reverse transcriptase (Human immunodeficiency virus 1, UniProt Q72547). Briefly: Inhibition of wild type HIV1 reverse transcriptase assessed as 32P-labeled GMP incorporation into nascent DNA strand.
Series [5] has as its target Human immunodeficiency virus type 1 reverse transcriptase (Human immunodeficiency virus 1, UniProt Q72547, K103N). The series is described as follows: Inhibition of HIV1 reverse transcriptase K103N mutant assessed as 32P-labeled GMP incorporation into nascent DNA strand.
Series [6] deals with Human immunodeficiency virus 1. Briefly: Antiviral activity against HIV1 infected in human HeLa cells expressing CD4-LTR assessed as inhibition of viral entry-related beta galactosidase expression treated for 2 hrs followed by drug wash out measured after 48 hrs by MAGI assay. It is filed as functional, organism-based. As to conditions: Human immunodeficiency virus 1, HeLa.

A short description of series [7]: Cytotoxicity against human HeLa cells expressing CD4-LTR by XTT assay. It is filed as cell-based. As to conditions: read-out: TC50 (the source's name).
Series [8] is described as follows: Therapeutic index, ratio of TC50 human HeLa cells expressing CD4-LTR to EC50 for HIV1 entry inhibition in human HeLa cells expressing CD4-LTR. It is filed as cell-based. As to conditions: read-out: TI.
Series [9] concerns Human immunodeficiency virus 1. Briefly: Antiviral activity against HIV1 infected in human CEM-SS cells assessed as inhibition of viral replication and virus-induced cytopathic effect by dose-response curve analysis. It is filed as functional. To be noted: Human immunodeficiency virus 1, CEM-SS.
Series [10] concerns Human immunodeficiency virus 2. The series is described as follows: Inhibition of HIV2 reverse transcriptase.
The test system of series [11] is Human immunodeficiency virus 2. The series is described as follows: Antiviral activity against HIV2 assessed as inhibition of viral single round replication at early time point. It is filed as functional, organism-based.
The test system of series [12] is Human immunodeficiency virus 2. Briefly: Antiviral activity against HIV2 assessed as inhibition of viral replication treated at time points after viral entry into host cells. It is filed as functional, organism-based.
Series [13] relates to Human immunodeficiency virus 2. The series is described as follows: Inhibition of HIV2 reverse transcriptase assessed as 32P-labeled GMP incorporation into nascent DNA strand at highest concentration.
The next series concerns HeLa. The series is described as follows: Inhibition of HIV1 gp120/CD4 interaction assessed as inhibition of gp120 and gp41 coexpressing human HL2/3 cell fusion to CD4 expressing human HeLa cells treated for 2 hrs measured after 48 hrs by chemiluminescence assay. As to conditions: Human immunodeficiency virus 1. It is filed as cell-based.
Series [14] has as its system Simian immunodeficiency virus. Briefly: Antiviral activity against SIV MAC251 infected in human 174xCEM cells assessed as inhibition of virus-induced cytopathic effect. It is filed as functional, organism-based.
The test system of series [15] is Human immunodeficiency virus 2. Briefly: Antiviral activity against HIV2 infected in human CEM-SS cells assessed as inhibition of viral replication and virus-induced cytopathic effect by dose-response curve analysis. It is filed as functional. As to conditions: Human immunodeficiency virus 2, CEM-SS.
Series [16] has as its system Human immunodeficiency virus 1. The series is described as follows: Antiviral activity against HIV1 RF infected in human CEM-SS cells assessed as inhibition of virus-induced cytopathic effect by XTT assay. It is filed as functional, organism-based. As to conditions: Human immunodeficiency virus 1, RF.
Series [17] can be described thus: Cytotoxicity against human CEM-SS cells by XTT assay. It is filed as cell-based. To be noted: read-out: TC50 (the source's name).

In the case of `Cc1cc(C)cc(C(=O)c2c(C(C)C)c(=O)[nH]c(=O)n2CC2CC2)c1`, the EC50 in series [1] came to 0.1 µM; in series [6], 0.012 µM; in [16] it was 0.0005 µM. In addition, the selectivity ratio in [2] stood at 2.55e+06; in [3], 13000; in series [8], 101000. The IC50 in [4] turned out to be 1.97 µM; in [5] it was 2.7 µM. Moreover, the CC50 in [7] was found to be 1180 µM; in series [17], 1200 µM. In addition, the EC99 in [9] came to 0.001 µM; in series [15] it was 10 µM. Also, the outcome in [10], in series [12], in series [13] and in [14] was inactive. Moreover, the outcome in series [11] was Active. The inhibition result in the series with HeLa is “inactive”.
As for `CCc1c(Sc2cc(C)cc(C)c2)n(Cc2ccccc2)c(=O)[nH]c1=O`, the EC50 in [1] amounted to 0.4 µM; in [6] it was 0.18 µM; in [16] it was 0.0018 µM. For the same compound, the selectivity ratio is 598000 in series [2], more than 2490 in [3] and 5980 in series [8]. The half-inhibitory concentration (IC50) in series [4] is 15.6 µM; in [5], 4.05 µM. The CC50 in series [7] and in [17] was 1100 µM in each case. Further, the EC99 in [9] came out at 1 µM. In addition, the result in series [10], in series [12], in [13] and in series [14] was inactive. In series [11], the outcome was Active. The inhibition entry in the series with HeLa is “inactive”.
With `CCc1c(Oc2cc(C)cc(C)c2)n(CC2CC2)c(=O)[nH]c1=O`, the results for the half-maximal effective concentration (EC50) in series [1], in series [6] and in series [16] were 0.6 µM, 0.006 µM and 0.006 µM, respectively. Moreover, the selectivity ratio in [2] is 215000; in [3], more than 2100; in series [8], 202000. In addition, the results for the IC50 in series [4] and in [5] were 0.016 µM and 0.21 µM, respectively. For the same compound, the CC50 in [7] was determined as 1280 µM; in series [17], 1300 µM. In addition, the 99% effect concentration (EC99) in [9] was 1 µM; in [15], 10 µM. The outcome in series [10], in series [12], in [13] and in [14] was inactive. Also, the outcome in series [11] was Active. In addition, the inhibition result in the series with HeLa is “inactive”.
On to `Cc1cc(C)cc(C(=O)c2c(C(C)C)c(=O)[nH]c(=O)n2CC2CC=CC2)c1`, for which the 50% effective concentration (EC50) in series [1] worked out at 15.5 µM; in [6] it was 0.41 µM; in series [16] it was 0.0022 µM. Moreover, the selectivity ratio is 491000 in series [2], more than 75 in [3] and 2690 in series [8]. The IC50 in series [4] is 0.651 µM; in series [5], 23 µM. Moreover, the CC50 worked out at 1120 µM in series [7] and 1100 µM in [17]. Also, the 99% effect concentration (EC99) in series [9] is 1 µM; in series [15], 100 µM. For the same compound, the result in series [10], in [12], in series [13] and in [14] was inactive. Moreover, the result in series [11] was Active. Also, in the series on HeLa, the inhibition result is “inactive”.
As to `Cc1cc(C)cc(Oc2c(C(C)C)c(=O)[nH]c(=O)n2CC2CCC2)c1`, the EC50 came to 1.3 µM in series [1], 0.26 µM in series [6] and 0.0005 µM in [16]. Moreover, the selectivity ratio came out at 32200 in series [2] and 12.2 in [3]. Moreover, the IC50 in [4] was 0.12 µM; in series [5] it was 0.213 µM. For the same compound, the results for the CC50 in [7] and in series [17] were 16.6 µM and 16.1 µM, respectively. Further, the concentration for an effect of 99% (EC99) in [9] was 1 µM. The outcome in [10], in series [12], in series [13] and in [14] was inactive. The outcome in series [11] was Active. In the series on HeLa, the inhibition entry is “inactive”.
For `CCc1c(C(=O)c2cc(C)cc(C)c2)n(CCC2C=CCC2)c(=O)[nH]c1=O` (configuration not stated), the figures for the EC50 in series [1], in [6] and in series [16] were 0.2 µM, 0.07 µM and 0.054 µM, respectively. Besides, the values for the selectivity ratio in series [2], in series [3] and in series [8] were 1680, 421 and 1310, respectively. Besides, the figures for the half-inhibitory concentration (IC50) in series [4] and in series [5] were 0.075 µM and 1.88 µM, respectively. Also, the CC50 in series [7] and in series [17] was 92 µM each time. In [9], the concentration for an effect of 99% (EC99) was determined as 1 µM. Moreover, the outcome in [10], in [12], in series [13] and in series [14] was inactive. The outcome in series [11] was Active. Moreover, in the series with HeLa, the inhibition entry is “inactive”.
In the case of `Cc1cc(C)cc(C(=O)c2c(C(C)C)c(=O)[nH]c(=O)n2CC2=CCCC2)c1`, the EC50 in [1] was found to be 0.1 µM; in series [6], 0.009 µM; in series [16], 0.0001 µM. In addition, the selectivity ratio in [2] was 523000; in series [3] it was 122; in series [8], 2290. The figures for the IC50 in series [4] and in series [5] were 0.02 µM and 1.6 µM, respectively. Also, the results for the CC50 in series [7] and in series [17] were 20.8 µM and 16.7 µM, respectively. Besides, the EC99 is 0.001 µM in [9] and 1 µM in series [15]. In addition, the result in series [10], in series [12], in series [13] and in [14] was inactive. The result in series [11] was Active. Besides, the inhibition result in the series with HeLa is “inactive”.
As to `Cc1cc(C)cc(Oc2c(C(C)C)c(=O)[nH]c(=O)n2Cc2ccccc2)c1`, the EC50 is 0.1 µM in series [1], 0.009 µM in [6] and 0.014 µM in [16]. Moreover, the selectivity ratio in series [2] was 2720; in [3] it was 278; in series [8], 4180. The results for the IC50 in series [4] and in series [5] were 0.114 µM and 0.975 µM, respectively. The CC50 in [7] and in series [17] was 38.2 µM each time. In addition, the 99% effect concentration (EC99) in series [9] amounted to 1 µM. The result in [10], in series [12], in [13] and in series [14] was inactive. In addition, in series [11], the result was Active. Moreover, the inhibition entry in the series with HeLa was “inactive”.
With `CCc1c(C(=O)c2cc(C)cc(C)c2)n(CC2=CCCC2)c(=O)[nH]c1=O`, the 50% effective concentration (EC50) in [1] amounted to 1.4 µM; in series [6] it was 0.11 µM; in series [16] it was 0.0025 µM. Also, the selectivity ratio in series [2] was determined as 23700; in series [3], 42.6; in series [8], 536. The results for the IC50 in series [4] and in series [5] were 0.088 µM and 1.93 µM, respectively. In addition, the CC50 in series [7] and in series [17] was 60.5 µM throughout. Further, the EC99 in [9] is 1 µM. In addition, the outcome in series [10], in series [12], in [13] and in series [14] was inactive. Also, in series [11], the outcome was Active. In the series with HeLa, the inhibition entry was “inactive”.
For the compound `CCc1c(Oc2cc(C)cc(C)c2)n(Cc2ccccc2)c(=O)[nH]c1=O`, the concentration giving a half-maximal response (EC50) is 0.3 µM in series [1], 0.08 µM in series [6] and 0.0049 µM in series [16]. Further, the values for the selectivity ratio in series [2], in series [3] and in series [8] were 165000, 2550 and 10200, respectively. Also, the figures for the 50% inhibitory concentration (IC50) in [4] and in [5] were 0.095 µM and 0.197 µM, respectively. Also, the CC50 in series [7] and in [17] was 802 µM throughout. Besides, the EC99 in series [9] and in [15] was 0.3 µM each time. The outcome in series [10], in series [12] and in series [13] was inactive. In series [11], the outcome was Active.
